According to patent US5236837A, “Enzymatic reagent for D-malate determination” (Boehringer Mannheim GmbH, priority 1989, dated 1993):
Read-outs that look alike come from different tables or passages of the source.

Legend:
[1] = target: T1, NAD+-dependent D-malate dehydrogenase (decarboxylating, E.C. 1.1.1.83) from E. coli (D-MDH, E. coli DSM 5496) (Escherichia coli, UniProt P76251); assay: Km determination and EDTA effect on the enzyme according to the invention; format: biochemical; settings: EDTA 0.7 mg/ml test solution
T1 construct: two 42 kD subunits, full length, no tag
T1 sequence (P76251 1-361): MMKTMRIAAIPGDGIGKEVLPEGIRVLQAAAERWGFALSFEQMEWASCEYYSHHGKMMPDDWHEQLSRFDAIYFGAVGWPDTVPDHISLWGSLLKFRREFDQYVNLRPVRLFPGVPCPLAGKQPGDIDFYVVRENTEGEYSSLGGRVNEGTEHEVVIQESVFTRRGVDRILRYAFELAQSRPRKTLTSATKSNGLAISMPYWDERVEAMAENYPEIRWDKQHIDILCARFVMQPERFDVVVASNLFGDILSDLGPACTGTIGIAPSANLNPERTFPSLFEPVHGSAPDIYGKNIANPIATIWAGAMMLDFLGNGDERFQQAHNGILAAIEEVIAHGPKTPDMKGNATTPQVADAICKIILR

[2] = system: D-malic enzyme from E. coli K12 (Crookes strain); settings: EDTA 3.3 μmol/ml; raw extract; cited from earlier work
[3] = system: D-malic enzyme from Pseudomonas fluorescens; settings: cited from earlier work
[4] = substrate: O=C(O)C[C@@H](O)C(=O)O; assay: Km determination and EDTA effect on the enzyme according to the invention; format: biochemical, E. coli
[5] = substrate: NC(=O)c1ccc[n+]([C@@H]2O[C@H](COP(=O)([O-])OP(=O)(O)OC[C@H]3O[C@@H](n4cnc5c(N)ncnc54)[C@H](O)[C@@H]3O)[C@@H](O)[C@H]2O)c1; assay: as above; format: biochemical, E. coli; settings: other: Tris, pH 8.5, 25° C., pH 8.5

For `O=C(O)CN(CCN(CC(=O)O)CC(=O)O)CC(=O)O` [EDTA], the “Inhibition of enzyme activity by EDTA” value [1] is given as “not inhibited” and the “Inhibition of the reaction by EDTA” value [2] is given as “inhibited”.

In the case of `NC(=O)c1ccc[n+]([C@@H]2O[C@H](COP(=O)([O-])OP(=O)(O)OC[C@H]3O[C@@H](n4cnc5c(N)ncnc54)[C@H](O)[C@@H]3O)[C@@H](O)[C@H]2O)c1` [NAD^+], the Km ([3]; read-out: Km for NAD+) is listed as 80 µM.

For `O=C(O)C[C@@H](O)C(=O)O` [D-malate], the Km ([3]; read-out: Km for malate) is given as 300 µM.

B1: NAD+-dependent D-malate dehydrogenase (decarboxylating, E.C. 1.1.1.83) from E. coli (D-MDH, E. coli DSM 5496) (Escherichia coli K-12) (protein)
chain: T1 sequence (P76251 1-361)
notes: two 42 kD subunits, full length, no tag
In the case of B1, the Km ([4]; other: HEPES, pH 9.0, 25° C., pH 9.0) is reported as 1500 µM, the Km ([4]; other: Tris, pH 8.5, 25° C., pH 8.5) is reported as 1100 µM and the Km [5] is reported as 400 µM.
